In PubChem BioAssay AID1845194 (Molecular Pharmacology Branch, DTP, NCI, 2023):
“And” between values parts separate entries of the source, which are not always exact repeats. Identical values can stand only once.

Test system: 287954-098-R-J1 tumor spheroid viability
Assay: Anticancer human tumor 287954-098-R-J1 patient-derived Ewing sarcoma cell line growth inhibition
Settings: spheroids with HUVEC and MSC; for viability, T/C: stronger effect = lower value
Text: Multicellular complex tumor spheroid response to DNA repair inhibitors in combination with DNA-damaging drugs
This study explores the anticancer activities of DNA-damaging drugs and inhibitors of DNA damage repair, both as single agents and in combinations. Complex tumor spheroids comprised of malignant cells, endothelial cells and mesenchymal stem cells served as an in vitro model for human solid tumors. This model system incorporates physiologically relevant features and patient-derived or established malignant cell lines with clinically relevant genetic alterations from many tumor types. Twenty-six patient-derived or established malignant cell lines were evaluated representing sarcoma, melanoma, small cell lung cancer (SCLC), non-small cell lung cancer (NSCLC), as well as bladder, ovarian and pancreatic cancers. The concentration ranges selected for each drug and investigational agent were based upon clinically achievable concentrations if the clinical Cmax of the agent was known.
Compounds. The drugs and compounds olaparib (NSC753686), talazoparib (NSC767125), berzosertib (NSC777718), elimusertib (NSC800525), nedisertib (NSC802822), VX-984 (NSC792969), AZD-1390 (NSC803789), temozolomide (NSC362856), topotecan (NSC609699), trabectedin (NSC813783), staurosporine (NSC755774), and gemcitabine (NSC613327) were obtained from the National Cancer Institute (NCI) Developmental Therapeutics Program Chemical Repository. The FDA-approved anticancer drug set is available from the Developmental Therapeutics Program at https://dtp.cancer.gov/organization/dscb/obtaining/available_plates.htm. […] The stock solutions were prepared in dimethyl sulfoxide (DMSO, Sigma-Aldrich, St. Louis, MO, cat. D2650) at 400-fold the tested concentration and stored at -70 degrees C. Prior to their use, the stock solutions were diluted in fresh medium and the final DMSO concentration in the assay was 0.25% (v/v). All drugs and investigational agents were tested over a range starting from a high concentration at or near the clinical Cmax and decreasing in half-log increments. If the clinical Cmax for an agent had not been determined, the highest concentration tested was 10 microM.
Cell Lines. The patient-derived cancer cell (PDC) lines: 156681-154-R-J1-PDC, 283228-195-R-J1-PDC, 287954-098-R-J1-PDC, 292921-168-R-J2-PDC, 349418-098-R-PDC, 425362-245-T-J1-PDC, 556581-035-R-J1-PDC, and BL0293-F563-PDC were received from the NCI Patient-Derived Models Repository (PDMR, https://pdmr.cancer.gov). The established cell lines HS-SY-2 (RRID:CVCL_8719), MPNST, and SYO-1 (RRID:CVCL_7146) were obtained from the Sloan Kettering Institute. The alveolar soft parts sarcoma cell line ASPS-1 (RRID:CVCL_S738) was established at the NCI and grown from internal seed stocks. The following established cell lines were purchased from the American Type Culture Collection (ATCC, Manassas, VA): G-401 (ATCC, cat. CRL-1441, RRID:CVCL_0270), SW982 (ATCC, cat. HTB-93, RRID:CVCL_1734), VA-ES-BJ (ATCC, cat. CRL-2138, RRID:CVCL_1785), NCI-H719 (ATCC, cat. CRL-5837, RRID:CVCL_1582), NCI-H196 (ATCC, cat. CRL-5823, RRID:CVCL_1509), NCI-H841 (ATCC, cat. CRL-5845, RRID:CVCL_1595), NCI-H1618 (ATCC, cat. CRL-5879, RRID:CVCL_1480), NCI-H1876 (ATCC, cat. CRL-5902, RRID:CVCL_1503), DMS 114 (ATCC, cat. CRL-2066; RRID:CVCL_1174), NCI-H211 (ATCC, cat. CRL-5824; RRID:CVCL_1529), and SW 1271 (ATCC, cat. CRL-2177, RRID:CVCL_1716). The small cell lung cancer cell line COR-L88 was purchased from Sigma-Aldrich (cat. 92031917-1VL, RRID:CVCL_1141). The non-small cell lung cancer cell lines NCI-H226 (RRID:CVCL_1544) and NCI-H322M (RRID:CVCL_1557) were established at the NCI and grown from internal seed stocks. Pooled donor human umbilical vein endothelial cells (HUVEC, Lonza, cat. CC-2519) and human mesenchymal stem cells (hMSC, Lonza, cat. PT-2501) were purchased from Lonza (Walkersville, MD).
Cell Culture. All cells were maintained in an incubator at 37 degrees C and 5% CO2 with 95% humidity. […]
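Also: spheroids exposed to compound for 7 days before viability readout.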
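For viability, T/C in this document: luminescent signal taken as surrogate of viable cell content; 100% = DMSO vehicle control viability and lower means growth inhibition.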

Which results are given for `Cc1sc2c(c1C)C(c1ccc(Cl)cc1)=NC(CC(=O)Nc1ccc(O)cc1)c1nnc(C)n1-2` (centres undefined)?
viability, T/C (compound 0.00949 µM): 113% and 114% and 104%; viability, T/C (compound 0.03 µM): 113% and 116% and 107%; viability, T/C (compound 0.0949 µM): 116% and 126% and 112%; viability, T/C (compound 0.3 µM): 86.4% and 108% and 84.2%; viability, T/C (compound 0.949 µM): 41% and 29% and 17.1%; viability, T/C (compound 3 µM): 4.42% and 2.62% and 6.59%; IC50 (curve of compound): 747 nM and 699 nM and 539 nM

Which results are given for `CC[C@@]1(O)C(=O)OCc2c1cc1n(c2=O)Cc2cc3c(CN(C)C)c(O)ccc3nc2-1`?
viability, T/C (compound 0.003 µM): 104% [middle of 10 runs]; viability, T/C (compound 0.00949 µM): 101% [middle of 10 runs]; viability, T/C (compound 0.03 µM): 15.2% [middle of 10 runs]; viability, T/C (compound 0.0949 µM): 1.9% [middle of 9 runs]; viability, T/C (compound 0.3 µM): 1.83% [middle of 10 runs]; IC50 (compound alone, run of 10/17/2019): 19.4 nM [middle of 5 runs]; IC50 (compound alone, run of 10/25/2019): 18.8 nM [middle of 4 runs]

With `[2H]c1nc(C)nc([2H])c1-c1cc(NC[C@@H](C)c2cccc3c(C(=O)NC)ccnc23)ncn1` + COc1cc2c(cc1O)CCNC21CSC2c3c(OC(C)=O)c(C)c4c(c3C(COC1=O)N1C(O)C3Cc5cc(C)c(OC)c(O)c5C(C21)N3C)OCO4 as the molecule, how does the IC50 (curve of first compound, second compound 30 pM) read?
Its IC50 is > 10000 nM.

What about the IC50 (curve of first compound, second compound 94.9 pM) of the same molecule?
Its IC50 is > 10000 nM.

What about the IC50 (curve of first compound, second compound 0.0003 µM) of the same molecule?
Its IC50 is > 10000 nM.

What about the IC50 (curve of first compound, second compound 0.000949 µM) of the same molecule?
The IC50 was < 31.6 nM.

What about the IC50 (curve of first compound, second compound 0.003 µM) of the same molecule?
Its IC50 is < 31.6 nM.

What about the viability, T/C (second compound 30 pM, first compound 0.0316 µM) of the same molecule?
The viability, T/C was 109%.

And the viability, T/C (second compound 30 pM, first compound 0.1 µM)?
The viability, T/C was 104%.

And the viability, T/C (second compound 30 pM, first compound 0.316 µM)?
The viability, T/C was 104%.

What about the viability, T/C (second compound 30 pM, first compound 1 µM) of the same molecule?
Its viability, T/C is 108%.

And the viability, T/C (second compound 30 pM, first compound 3.16 µM)?
The viability, T/C was 109%.

And the viability, T/C (second compound 30 pM, first compound 10 µM)?
The viability, T/C was 98.6%.

And the viability, T/C (second compound 94.9 pM, first compound 0.0316 µM)?
Its viability, T/C is 106%.

What about the viability, T/C (second compound 94.9 pM, first compound 0.1 µM) of the same molecule?
Its viability, T/C is 114%.

And the viability, T/C (second compound 94.9 pM, first compound 0.316 µM)?
Its viability, T/C is 107%.

And the viability, T/C (second compound 94.9 pM, first compound 1 µM)?
Its viability, T/C is 110%.

What about the viability, T/C (second compound 94.9 pM, first compound 3.16 µM) of the same molecule?
The viability, T/C was 101%.

And the viability, T/C (second compound 94.9 pM, first compound 10 µM)?
The viability, T/C was 96.7%.

And the viability, T/C (second compound 0.0003 µM, first compound 0.0316 µM)?
Its viability, T/C is 105%.

And the viability, T/C (second compound 0.0003 µM, first compound 0.1 µM)?
The viability, T/C was 108%.

What about the viability, T/C (second compound 0.0003 µM, first compound 0.316 µM) of the same molecule?
The viability, T/C was 112%.

And the viability, T/C (second compound 0.0003 µM, first compound 1 µM)?
Its viability, T/C is 107%.

What about the viability, T/C (second compound 0.0003 µM, first compound 3.16 µM) of the same molecule?
The viability, T/C was 95.4%.

And the viability, T/C (second compound 0.0003 µM, first compound 10 µM)?
Its viability, T/C is 89.2%.

What about the viability, T/C (second compound 0.000949 µM, first compound 0.0316 µM) of the same molecule?
Its viability, T/C is 0.38%.

What about the viability, T/C (second compound 0.000949 µM, first compound 0.1 µM) of the same molecule?
Its viability, T/C is 0.51%.

What about the viability, T/C (second compound 0.000949 µM, first compound 0.316 µM) of the same molecule?
Its viability, T/C is 0.33%.

And the viability, T/C (second compound 0.000949 µM, first compound 1 µM)?
Its viability, T/C is 0.67%.

What about the viability, T/C (second compound 0.000949 µM, first compound 3.16 µM) of the same molecule?
The viability, T/C was 0.26%.

What about the viability, T/C (second compound 0.000949 µM, first compound 10 µM) of the same molecule?
Its viability, T/C is 0.31%.

What about the viability, T/C (second compound 0.003 µM, first compound 0.0316 µM) of the same molecule?
Its viability, T/C is 0.21%.

And the viability, T/C (second compound 0.003 µM, first compound 0.1 µM)?
The viability, T/C was 0.24%.

What about the viability, T/C (second compound 0.003 µM, first compound 0.316 µM) of the same molecule?
Its viability, T/C is 0.17%.

And the viability, T/C (second compound 0.003 µM, first compound 1 µM)?
Its viability, T/C is 0.15%.

And the viability, T/C (second compound 0.003 µM, first compound 3.16 µM)?
The viability, T/C was 0.14%.

What about the viability, T/C (second compound 0.003 µM, first compound 10 µM) of the same molecule?
The viability, T/C was 0.25%.
